≈ marks a conversion by molar mass, not a printed value.
Experiment: Solubility determination in aqueous vehicle (0.9% NaCl and 0.5% polysorbate 80), filtrate analyzed by HPLC
Type: physicochemical
Procedure: Sample preparation: excess Type 8 was added to the vehicle containing 0.9% NaCl and 0.5% polysorbate 80 to achieve ˜3 mg/mL suspension. The mixture was sonicated for 15 minutes, then agitated at 500 rpm at room temperature. At 24 hours, the mixture was filtrated, and filtrate was analyzed by HPLC to determine the solubility. • Instrument: Agilent 1260 • Column: ACE ultracore super C18 (100 mm*4.6 mm*2.5 μm) (P/N: CORE-25A-1046U) • Wavelength: 234 nm • Column Temperature: 20° C. • Column Flow: 1.0 mL/min • Acquisition time: 25 min • Injection volume: 5 μL • Retention time: ˜14 min • Mobile Phase A: 5 mM (NH4)2HPO4 and 5 mM of NH4H2PO4 in H2O • Mobile Phase B: ACN [table] The solubility of Form C (hemihydrate as disclosed in WO 2018/096170) was determined in the same media used to determine the solubility of Type 8 as described above. Sample preparation: excess Form C was added to the vehicle containing 0.9% NaCl and 0.5% polysorbate 80. The mixture was sonicated for 15 minutes, then agitated at 500 rpm at room temperature. At 24 hours, the mixture was filtrated, and filtrate was analyzed by HPLC to determine the solubility.

- solubility at 24 h (aqueous vehicle (0.9% NaCl and 0.5% polysorbate 80), aqueous with cosolvent or surfactant or cyclodextrin, thermodynamic from solid, RT, 0.9% NaCl and 0.5% polysorbate 80): ~70.7 µg/mL (≈ 176 µM)
- solubility (room temperature, aqueous media containing 0.9% NaCl and 0.5% polysorbate 80, at 24 hours): around 70.7 μg/mL
SMILES: Cc1nc(N(C)C(=O)Cc2ccc(-c3ccccn3)cc2)sc1S(N)(=O)=O [Type 8, N-methyl-N-(4-methyl-5-sulfamoylthiazol-2-yl)-2-(4-(pyridin-2-yl)phenyl) acetamide]

— patent US20260085068A1, “A NOVEL CRYSTALLINE FORM OF PRITELIVIR” (Assembly Biosciences, Inc., priority 2022, published 2026)
